Common to all, as to format: in vivo
For assay [1], the system named is Boophilus microplus. The assay is described as follows: Boophilus microplus test (BOOPMI injection). To be noted: application rate of 20 μg/animal, injection into the abdomen. The protocol: (§1) • Solvent: dimethyl sulphoxide
(§2) To prepare a suitable active compound preparation, 1 part by weight of active compound is mixed with the stated amount of solvent, and the concentrate is diluted with water to the desired concentration.
The solution of active compound is injected into the abdomen (Boophilus microplus), and the animals are transferred into dishes and kept in a climatised room. The activity is assessed by […] of fertile eggs.
After the desired period of time, the effect in % is determined. 100% means that none of the ticks has laid any fertile eggs.

Assay [2] relates to Lucilia cuprina larvae. The assay can be described thus: Lucillia cuprina test (LUCICU). The note with it: application rate of 100 ppm, treated horse meat. How it is done: as §1, §2
Vessels containing horse meat treated with the active compound preparation of the desired concentration are populated with Lucilia cuprina larvae.
After the desired period of time, the kill in % is determined. 100% means that all of the larvae have been killed; 0% means that none of the larvae have been killed.

Assay [3] has as its system Summer wheat. The assay is described as follows: Container trials with cereal in a greenhouse, use of safeners (mefenpyr 1 day prior to herbicide application). The note with it: 28 days after application, without safener. How it is done: Seeds of monocotyledonous and dicotyledonous weed and crop plants are placed in sandy loam in wood fibre pots, covered with soil and cultivated in a greenhouse under good growth conditions. 2 to 3 weeks after sowing, the test plants are treated at the one-leaf stage. The test compounds, formulated as wettable powders (WP), are then, with a water application rate of 600 l/ha (converted), with 0.2% of wetting agent added, sprayed at various dosages onto the green parts of the plants. After the test plants have […], the activity of the preparations is rated visually in comparison to untreated controls (herbicidal activity in percent: 100% activity=the plants have died, 0% activity=like control plants).
If it is additionally to be tested as to whether safeners can improve the plant compatibility of test substances in the case of crop plants, the following options are used for applying the safener: • seeds of the crop plants are, before sowing, dressed with the safener substance (the amount of safener stated in percent, based on the weight of the seed) • before application of the test substances, the crop plants are sprayed with the safener at a certain application rate per hectare (usually 1 day before the application of the test substances) • the safener is applied together with the test substance as a tank mix (the amount of safener stated in g/ha or as a ratio, based on the herbicide). Container Trials with Cereal in a Greenhouse Mefenpyr 1 Day Prior to Herbicide Application

This is an account of results in patent publication US8846946B2, “Germinal alkoxy/alkylspirocyclic substituted tetramate derivatives” (Bayer CropScience AG, priority 2008, dated 2014).

As to `COC1(C)CCC2(CC1)NC(=O)C(c1c(C)cc(Cl)cc1C)=C2O` (mixture of isomers) [I-a-3], the “efficacy (no fertile eggs laid)” value in assay [1] was “good efficacy”. Besides, in assay [2], the “kill in % (larvae killed)” value was no less than 80%.
Turning to `CCc1cc(C)cc(C)c1C1=C(O)C2(CCC(CC)(OC)CC2)NC1=O` (mixture of isomers) [I-a-64], the “Summer wheat observed (%)” value in assay [3] (application rate 12.5 g a.i./ha) is recorded as 20%; in assay [3] (application rate 25 g a.i./ha) it was 60%; in assay [3] (application rate 50 g a.i./ha), 70%.
For the molecule `CCOC(=O)OC1=C(c2c(C)cc(C)cc2C)C(=O)NC12CCC(C)(OC)CC2` (stereo not drawn) [I-c-3], in assay [1], the “efficacy (no fertile eggs laid)” value was “good efficacy”.
